# Ends that are not written are not given here.
# Experiments:
# P. aeruginosa = conditions: for MIC P. aeruginosa (H187): Table 6; for MIC H103: MBI 29 and MBI21 derivatives
# Description: (§1) FICs are performed by checkerboard titrations of peptides in one dimension of a microtiter plate, and of antibiotics in the other dimension, for example. The FIC is calculated by looking at the impact of one antibiotic on the MIC of the other and vice versa. […] Preferably, an FIC of less than 0.5 is obtained for synergism. As used herein, FIC can be determined as follows: [formula]
# (§2) Briefly, cells were grown overnight at 37° C. in LB-S (Luria broth without any salt supplement) and diluted one in 10,000 in the same medium to give concentrations of about 10^4 to 10^5 CFU/ml. The broth dilutions were set up in a 96 well microtiter plate by putting 200 μl of LB-S containing the initial concentration of antibiotic or compound in column 1 and 100 μl of the same medium in columns 2-12. The compounds were diluted by taking 100 μl of broth from column 1 and mixing it with column 2, resulting in a one in two dilution. This was continued to column 10. Finally, 10 μl of bacteria were pipetted into columns 1-11, and the plates incubated overnight at 37° C. The next day the plates were scored for growth in the wells, and the MIC determined.
# E. coli = assay: MIC, broth dilution in LB-S; assay type: cell-based; conditions: for MIC E. coli (UB 1005): Table 6; for MIC E. coli 0111:B4: MBI 29 and MBI21 derivatives
# Description: (§3) The biological activity of the peptides can be determined by standard methods known to those of skill in the art, such as “minimal inhibitory concentration (MIC)” assay described in the present examples, whereby the lowest concentration at which no change in OD is observed for a given period of time is recorded as MIC. Alternatively, “fractional inhibitory concentration (FIC)” is also useful for determination of synergy between the peptides of the invention, or the peptides in combination with known antibiotics. FICs are performed by checkerboard titrations of peptides in one dimension of a microtiter plate, and of antibiotics in the other dimension, for example. The FIC is calculated by looking at the impact of one antibiotic on the MIC of the other and vice versa. […] Preferably, an FIC of less than 0.5 is obtained for synergism. As used herein, FIC can be determined as follows: [formula]
# as §2
# Red Blood Cells = assay: Red blood cell lysis; assay type: cell-based; conditions: concentration lysing Red Blood Cells
# S. epidermis = conditions: S. epi 0017; MBI 29 and MBI21 derivatives
# Description: as §1, §2
# B. Subtilis = assay: MIC, broth dilution in LB-S; assay type: cell-based; conditions: MBI 29 and MBI21 derivatives
# Description: as §3, §2
# E. faecalis = assay: MIC, broth dilution in LB-S; assay type: cell-based; conditions: MBI 29 and MBI21 derivatives
# Description: as §3, §2
# S. aureus = assay: MIC, broth dilution in LB-S; assay type: cell-based; conditions: MBI 29 and MBI21 derivatives
# Description: as §3, §2
# C610 = assay: MIC, broth dilution in LB-S; assay type: cell-based, S. typhimurium; conditions: MBI 29 and MBI21 derivatives
# Description: as §3, §2
Molecule,MIC P. aeruginosa (H187) (P. aeruginosa),MIC E. coli (UB 1005) (E. coli),RBC Lysis (Red Blood Cells),MIC H103 (P. aeruginosa),MIC S. epi 0017 (S. epidermis),MIC B. Subtilis (B. Subtilis),MIC E. coli 0111:B4 (E. coli),MIC E. faecalis (E. faecalis),MIC K147 (S. aureus),MIC SAP (S. aureus),MIC C610 (C610)
KWKSFIKNLEKVLKKGPILANLVSIV [compound 491],8 µg/mL,2 µg/mL,>55 µg/mL,,,,,,,,
CC[C@H](C)[C@H](NC(=O)[C@H](CC(C)C)NC(=O)[C@H](C)NC(=O)[C@@H]1CCCN1C(=O)[C@H](CC(C)C)NC(=O)CNC(=O)[C@@H](NC(=O)[C@@H](NC(=O)[C@H](CC(C)C)NC(=O)[C@@H](NC(=O)[C@H](CCCCN)NC(=O)[C@H](CCCCN)NC(=O)[C@@H](NC(=O)[C@H](C)NC(=O)[C@@H](NC(=O)[C@@H](NC(=O)[C@H](CC(C)C)NC(=O)[C@H](CCCCN)NC(=O)[C@H](CCCCN)NC(=O)[C@@H](NC(=O)[C@H](Cc1ccccc1)NC(=O)[C@H](CCC(=O)O)NC(=O)[C@H](CCCCN)NC(=O)[C@H](Cc1c[nH]c2ccccc12)NC(=O)[C@@H](N)CCCCN)[C@@H](C)CC)[C@@H](C)O)[C@@H](C)O)C(C)C)C(C)C)[C@@H](C)O)[C@@H](C)O)C(=O)N[C@@H](CO)C(=O)O [compound 492],4.8 µg/mL,2.4 µg/mL,>55 µg/mL,,,,,,,,
KWKSFIKNLEKVLKPGGLLSNIVTSL [compound 490],8 µg/mL,1 µg/mL,>55 µg/mL,,,,,,,,
KWKKFIKELQKVLAPGGLLSNIVTSL [compound 493],10 µg/mL,5 µg/mL,>55 µg/mL,,,,,,,,
KWKSFIKKLTSVLKKVVTTALPALIS [MBI29A1],,,,16 µg/mL,16 µg/mL,16 µg/mL,4 µg/mL,64 µg/mL,16 µg/mL,16 µg/mL,8 µg/mL
KKSFFKKLTSVASSVLS [MBI21A14],,,,>128 µg/mL,>128 µg/mL,>128 µg/mL,>128 µg/mL,>128 µg/mL,>128 µg/mL,>128 µg/mL,128 µg/mL

# Reference: patent publication US6906035B2, “Antimicrobial cationic peptides” (priority 1995, dated 2005)
